Experimental data: patent US20250101028A1, “HETEROCYCLIC COMPOUNDS, COMPOSITIONS THEREOF, AND METHODS OF TREATMENT THEREWITH” (BeiGene, Ltd., priority 2022, published 2025)

Legend:
[1] = test system: pERK1/2(THR202/TYR204) level, SW620 cell line; assay: KRAS G12V pERK assay (HTRF); assay type: cell-based; details: Homo sapiens, SW-620; SW620 cells, 2 hrs compound treatment
Description: SW620 cell line was used in this study. Cells were maintained in RPMI 1640 supplemented with 10% fetal bovine serum (Thermo Fisher), 50 units/mL penicillin and streptomycin (Thermo Fisher) and kept at 37° C. in a humidified atmosphere of 5% CO2 in air. Cells were reinstated from frozen stocks that were laid down within 30 passages from the original cells purchased. 40000 cells per well were seeded into a 96-well plate and incubated overnight. Cells were treated with a 10-point dilution series. The final compound concentration is from […]. After 2 hrs compound treatment, cells were lysed, and the pERK1/2(THR202/TYR204) level in the cell lysates was detected by HTRF kit (Cisbio). In brief, a total of 16 μL of cell lysate from each well of a 96-well plate was transferred to a 384-well white assay plate. Lysate from each well was incubated with 2 μL of Eu3+− cryptate (donor) labeled anti-phospho-ERK1/2 and 2 μL of D2 (acceptor) labeled anti-phospho-ERK1/2 antibodies (Cisbio) overnight in dark at room temperature. When donor and acceptor are in close proximity, excitation of the donor with laser triggers a Fluorescence Resonance Energy Transfer (FRET) towards the acceptor, which in turn fluoresces at 655 nm wavelength. FRET signals were measured using a PHERAstar FSX reader (BMG Labtech). IC50 determination was performed by fitting the curve of percent inhibition versus the log of the inhibitor concentration using Dotmatics.

[2] = target: T1, GST-tagged GDP-loaded KRAS G12V (amino acids 1-169) (Homo sapiens, UniProt P01116, G12V); assay: KRAS G12V probe displacement assay (TR-FRET); assay type: binding; details: displacement of biotinylated probe 2 from GDP-loaded KRAS G12V
T1 construct: GST-tagged GDP-loaded KRAS G12V (amino acids 1-169); made in house; host or cells: E. coli
Summary of the method: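 GST-tagged GDP-loaded KRAS 1-169 (WT 3 nM; G12V 2 nM final) preincubated 1 h at 24 °C with serially diluted compound in HEPES pH 7.5 buffer, then biotinylated probe added (probe 1 60 nM for WT; probe 2 2.5 nM for G12V), 1 h. Anti-GST-Tb/streptavidin-XL665 TR-FRET 665/620 ratio; IC50 by four-parameter fit.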

T1 sequence (P01116 1-169 isoform P01116-2 G12V): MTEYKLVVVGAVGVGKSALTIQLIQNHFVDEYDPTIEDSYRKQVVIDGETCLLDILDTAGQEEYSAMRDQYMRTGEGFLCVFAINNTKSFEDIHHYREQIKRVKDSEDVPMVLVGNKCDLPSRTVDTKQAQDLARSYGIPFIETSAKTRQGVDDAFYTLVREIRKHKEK

Structure (SMILES): Nc1nc2c(-c3c(C(F)(F)F)cc4c(N[C@H]5[C@@H]6COC[C@@H]65)nc(OC[C@@]56CCCN5C[C@H](F)C6)nc4c3F)ccc(F)c2s1 [Example 7, 4-(4-(((1R,5S,6r)-3-oxabicyclo [3.1.0]hexan-6-yl)amino)-8-fluoro-2-(((2R,7aS)-2-fluorotetrahydro-1H-pyrrolizin-7a(5H)-yl)methoxy)-6-(trifluoromethyl)quinazolin-7-yl)-7-fluorobenzo[d]thiazol-2-amine]
- IC50 [1]: 220 nM
- IC50 [2]: 4.2 nM

Structure (SMILES): Nc1nc2c(-c3c(C(F)(F)F)cc4c(N5CCC5)nc(OC[C@@]56CCCN5C[C@H](F)C6)nc4c3F)ccc(F)c2s1 [Example 33, 4-(4-(azetidin-1-yl)-8-fluoro-2-(((2R,7aS)-2-fluorotetrahydro-1H-pyrrolizin-7a(5H)-yl)methoxy)-6-(trifluoromethyl)quinazolin-7-yl)-7-fluorobenzo[d]thiazol-2-amine]
- IC50 [1]: 333 nM
- IC50 [2]: 2.6 nM

Structure (SMILES): Nc1nc2c(-c3c(C(F)(F)F)cc4c(N5CC(F)C5)nc(OC[C@@]56CCCN5C[C@H](F)C6)nc4c3F)ccc(F)c2s1 [Example 37, 7-fluoro-4-(8-fluoro-4-(3-fluoroazetidin-1-yl)-2-(((2R,7aS)-2-fluorotetrahydro-1H-pyrrolizin-7a(5H)-yl)methoxy)-6-(trifluoromethyl)quinazolin-7-yl)benzo[d]thiazol-2-amine]
- IC50 [1]: 449 nM
- IC50 [2]: 6 nM

Structure (SMILES): N#CC1CN(c2nc(OC[C@@]34CCCN3C[C@H](F)C4)nc3c(F)c(-c4ccc(F)c5sc(N)nc45)c(C(F)(F)F)cc23)C1 [Example 39, 1-(7-(2-amino-7-fluorobenzo[d]thiazol-4-yl)-8-fluoro-2-(((2R,7aS)-2-fluorotetrahydro-1H-pyrrolizin-7a(5H)-yl)methoxy)-6-(trifluoromethyl)quinazolin-4-yl)azetidine-3-carbonitrile]
- IC50 [1]: 410 nM
- IC50 [2]: 5.5 nM

Structure (SMILES): CC1C(C#N)CN1c1nc(OC[C@@]23CCCN2C[C@H](F)C3)nc2c(F)c(-c3ccc(F)c4sc(N)nc34)c(C(F)(F)F)cc12 (stereo partly drawn) [Example 43, 1-(7-(2-amino-7-fluorobenzo[d]thiazol-4-yl)-8-fluoro-2-(((2R,7aS)-2-fluorotetrahydro-1H-pyrrolizin-7a(5H)-yl)methoxy)-6-(trifluoromethyl)quinazolin-4-yl)-2-methylazetidine-3-carbonitrile]
- IC50 [1]: 356 nM
- IC50 [2]: 7.1 nM

Structure (SMILES): N#CC1CCN(c2nc(OC[C@@]34CCCN3C[C@H](F)C4)nc3c(F)c(-c4ccc(F)c5sc(N)nc45)c(C(F)(F)F)cc23)C1 (stereo partly drawn) [Example 60, 1-(7-(2-amino-7-fluorobenzo[d]thiazol-4-yl)-8-fluoro-2-(((2R,7aS)-2-fluorotetrahydro-1H-pyrrolizin-7a(5H)-yl)methoxy)-6-(trifluoromethyl)quinazolin-4-yl)pyrrolidine-3-carbonitrile]
- IC50 [1]: 413 nM
- IC50 [2]: 2.1 nM

Structure (SMILES): N#CC1CCCN(c2nc(OC[C@@]34CCCN3C[C@H](F)C4)nc3c(F)c(-c4ccc(F)c5sc(N)nc45)c(C(F)(F)F)cc23)CC1 (stereo partly drawn) [Example 82, 1-(7-(2-amino-7-fluorobenzo[d]thiazol-4-yl)-8-fluoro-2-(((2R,7aS)-2-fluorotetrahydro-1H-pyrrolizin-7a(5H)-yl)methoxy)-6-(trifluoromethyl)quinazolin-4-yl)azepane-4-carbonitrile]
- IC50 [1]: 199 nM
- IC50 [2]: 0.74 nM

Structure (SMILES): CN1CC2(CCN(c3nc(OC[C@@]45CCCN4C[C@H](F)C5)nc4c(F)c(-c5ccc(F)c6sc(N)nc56)c(C(F)(F)F)cc34)CC2)OC1=O [Example 87, 8-(7-(2-amino-7-fluorobenzo[d]thiazol-4-yl)-8-fluoro-2-(((2R,7aS)-2-fluorotetrahydro-1H-pyrrolizin-7a(5H)-yl)methoxy)-6-(trifluoromethyl)quinazolin-4-yl)-3-methyl-1-oxa-3,8-diazaspiro[4.5]decan-2-one]
- IC50 [1]: 108 nM
- IC50 [2]: 0.77 nM

Structure (SMILES): C[C@@H]1C[C@@H](C#N)CCN1c1nc(OC[C@@]23CCCN2C[C@H](F)C3)nc2c(F)c(-c3ccc(F)c4sc(N)c(C#N)c34)c(Cl)cc12 [Example 101, (2R,4S)-1-(7-(2-amino-3-cyano-7-fluorobenzo[b]thiophen-4-yl)-6-chloro-8-fluoro-2-(((2R,7aS)-2-fluorotetrahydro-1H-pyrrolizin-7a(5H)-yl)methoxy)quinazolin-4-yl)-2-methylpiperidine-4-carbonitrile]
- IC50 [1]: 11 nM
- IC50 [2]: 0.28 nM

Structure (SMILES): N#CCC1CCN(c2nc(OC[C@@]34CCCN3C[C@H](F)C4)nc3c(F)c(-c4cc(N)cc(Cl)c4C(F)(F)F)ncc23)CC1 [Example 125, 2-(1-(7-(5-amino-3-chloro-2-(trifluoromethyl)phenyl)-8-fluoro-2-(((2R,7aS)-2-fluorotetrahydro-1H-pyrrolizin-7a(5H)-yl)methoxy)pyrido[4,3-d]pyrimidin-4-yl)piperidin-4-yl)acetonitrile]
- IC50 [2]: 81 nM

Structure (SMILES): N#CCC1CCCN(c2nc(OC[C@@]34CCCN3C[C@H](F)C4)nc3c(F)c(-c4cc(N)cc(Cl)c4C(F)(F)F)ncc23)C1 (stereo partly drawn) [Example 126, 2-(1-(7-(5-amino-3-chloro-2-(trifluoromethyl)phenyl)-8-fluoro-2-(((2R,7aS)-2-fluorotetrahydro-1H-pyrrolizin-7a(5H)-yl)methoxy)pyrido[4,3-d]pyrimidin-4-yl)piperidin-3-yl)acetonitrile]
- IC50 [2]: 6.3 nM

Structure (SMILES): Nc1cc(Cl)c(C(F)(F)F)c(-c2ncc3c(N4CCC(O)CC4)nc(OC[C@@]45CCCN4C[C@H](F)C5)nc3c2F)c1 [Example 127, 1-(7-(5-amino-3-chloro-2-(trifluoromethyl)phenyl)-8-fluoro-2-(((2R,7aS)-2-fluorotetrahydro-1H-pyrrolizin-7a(5H)-yl)methoxy)pyrido[4,3-d]pyrimidin-4-yl)piperidin-4-ol]
- IC50 [2]: 21 nM

Structure (SMILES): C[C@]1(O)CCCN(c2nc(OC[C@@]34CCCN3C[C@H](F)C4)nc3c(F)c(-c4cc(N)cc(Cl)c4C(F)(F)F)ncc23)C1 [Example 129, (S)-1-(7-(5-amino-3-chloro-2-(trifluoromethyl)phenyl)-8-fluoro-2-(((2R,7aS)-2-fluorotetrahydro-1H-pyrrolizin-7a(5H)-yl)methoxy)pyrido[4,3-d]pyrimidin-4-yl)-3-methylpiperidin-3-ol]
- IC50 [2]: 15 nM

Structure (SMILES): CCC1(O)CCCN(c2nc(OC[C@@]34CCCN3C[C@H](F)C4)nc3c(F)c(-c4cc(N)cc(Cl)c4C(F)(F)F)ncc23)C1 (stereo partly drawn) [Example 130, 1-(7-(5-amino-3-chloro-2-(trifluoromethyl)phenyl)-8-fluoro-2-(((2R,7aS)-2-fluorotetrahydro-1H-pyrrolizin-7a(5H)-yl)methoxy)pyrido[4,3-d]pyrimidin-4-yl)-3-ethylpiperidin-3-ol]
- IC50 [2]: 32 nM

Structure (SMILES): Nc1cc(Cl)c(C(F)(F)F)c(-c2ncc3c(N4CCC5CC5(O)C4)nc(OC[C@@]45CCCN4C[C@H](F)C5)nc3c2F)c1 (stereo partly drawn) [Example 131, 3-(7-(5-amino-3-chloro-2-(trifluoromethyl)phenyl)-8-fluoro-2-(((2R,7aS)-2-fluorotetrahydro-1H-pyrrolizin-7a(5H)-yl)methoxy)pyrido[4,3-d]pyrimidin-4-yl)-3-azabicyclo[4.1.0]heptan-1-ol]
- IC50 [2]: 23 nM
